From ChEMBL document CHEMBL1671722, “Comparative in vitro activity profiles of novel bis-indole antibacterials against gram-positive and gram-negative clinical isolates” (Antimicrob Agents Chemother, 2010) come the findings set out here.

≈ marks a conversion by molar mass, not a printed value.

Common to all, as to type: functional
For assay [1], the system named is Staphylococcus aureus. Kind of assay: Antimicrobial activity against methicillin-susceptible Staphylococcus aureus by broth microdilution method.
The test system of assay [2] is Staphylococcus aureus. Kind of assay: Antimicrobial activity against methicillin-resistant Staphylococcus aureus by broth microdilution method.
Assay [3] deals with Staphylococcus epidermidis. Kind of assay: Antimicrobial activity against methicillin-resistant Staphylococcus epidermidis by broth microdilution method.
In assay [4] the test system is Streptococcus agalactiae. Description: Antimicrobial activity against Streptococcus agalactiae by broth microdilution method.
Assay [5] deals with Streptococcus pneumoniae. Description: Antimicrobial activity against penicillin-resistant Streptococcus pneumoniae by broth microdilution method.
Assay [6] relates to Streptococcus pneumoniae. Kind of assay: Antimicrobial activity against penicillin-intermediate Streptococcus pneumoniae by broth microdilution method.
Assay [7] deals with Enterococcus faecalis. Kind of assay: Antimicrobial activity against vancomycin-susceptible Enterococcus faecalis by broth microdilution method.
Assay [8] has as its system Enterococcus faecium. Description: Antimicrobial activity against vancomycin-resistant Enterococcus faecium by broth microdilution method.
Assay [9] concerns Enterococcus faecium. Description: Antimicrobial activity against vancomycin-susceptible Enterococcus faecium by broth microdilution method.
For assay [10], the system named is Streptococcus pneumoniae. Kind of assay: Antimicrobial activity against penicillin-susceptible Streptococcus pneumoniae by broth microdilution method.
The subject of assay [11] is Enterococcus faecalis. Kind of assay: Antimicrobial activity against vancomycin-resistant Enterococcus faecalis by broth microdilution method.
For assay [12], the system named is Staphylococcus epidermidis. Description: Antimicrobial activity against methicillin-susceptible Staphylococcus epidermidis by broth microdilution method.
Assay [13] concerns Haemophilus influenzae. Kind of assay: Antimicrobial activity against Haemophilus influenzae by broth microdilution method.
Assay [14] concerns Acinetobacter baumannii. Description: Antimicrobial activity against Acinetobacter baumannii by broth microdilution method.
The test system of assay [15] is Acinetobacter baumannii. Description: Antimicrobial activity against multiple dug-resistant Acinetobacter baumannii by broth microdilution method.
The test system of assay [16] is Pseudomonas aeruginosa. Kind of assay: Antimicrobial activity against Pseudomonas aeruginosa by broth microdilution method.
The subject of assay [17] is Proteus mirabilis. Kind of assay: Antimicrobial activity against Proteus mirabilis by broth microdilution method.
Assay [18] relates to Klebsiella pneumoniae. Description: Antimicrobial activity against ESBL-production Klebsiella pneumoniae by broth microdilution method.
Assay [19] concerns Burkholderia cepacia. Kind of assay: Antimicrobial activity against Burkholderia cepacia by broth microdilution method.
Assay [20] deals with Klebsiella pneumoniae. Description: Antimicrobial activity against Klebsiella pneumoniae by broth microdilution method.
In assay [21] the test system is Escherichia coli. Description: Antimicrobial activity against Escherichia coli by broth microdilution method.
For assay [22], the system named is Clostridioides difficile. Kind of assay: Antimicrobial activity against Clostridium difficile by broth microdilution method.
For assay [23], the system named is Serratia marcescens. Kind of assay: Antimicrobial activity against Serratia marcescens by broth microdilution method.

Regarding `CCCCCCCCCC(=O)N[C@@H](Cc1c[nH]c2ccccc12)C(=O)N[C@H](CC(N)=O)C(=O)N[C@@H](CC(=O)O)C(=O)N[C@@H]1C(=O)NCC(=O)N[C@@H](CCCN)C(=O)N[C@@H](CC(=O)O)C(=O)N[C@H](C)C(=O)N[C@@H](CC(=O)O)C(=O)NCC(=O)N[C@H](CO)C(=O)N[C@@H]([C@H](C)CC(=O)O)C(=O)N[C@@H](CC(=O)c2ccccc2N)C(=O)O[C@@H]1C`, the MIC50 in assay [1] was found to be 0.5 µg/mL (≈ 0.309 µM); in [2], 0.25 µg/mL (≈ 0.154 µM); in assay [3] it was 0.5 µg/mL (≈ 0.309 µM); in assay [4] it was 0.5 µg/mL (≈ 0.309 µM); in assay [5], 0.06 µg/mL (≈ 0.037 µM); in assay [6], 0.06 µg/mL (≈ 0.037 µM). Besides, the MIC50 in assay [7] came out at 1 µg/mL (≈ 0.617 µM); in assay [8], 2 µg/mL (≈ 1.23 µM); in assay [9], 4 µg/mL (≈ 2.47 µM); in [10] it was 0.06 µg/mL (≈ 0.037 µM); in assay [11] it was 0.5 µg/mL (≈ 0.309 µM); in [12], 0.5 µg/mL (≈ 0.309 µM). Besides, the MIC90 came out at 0.5 µg/mL (≈ 0.309 µM) in assay [1]; 0.25 µg/mL (≈ 0.154 µM) in [2]; 1 µg/mL (≈ 0.617 µM) in assay [3]; 2 µg/mL (≈ 1.23 µM) in [4]; 0.12 µg/mL (≈ 0.074 µM) in assay [5]; 0.25 µg/mL (≈ 0.154 µM) in assay [6]. Besides, the MIC90 in assay [7] is 2 µg/mL (≈ 1.23 µM); in [8], 4 µg/mL (≈ 2.47 µM); in [9], 4 µg/mL (≈ 2.47 µM); in assay [10], 0.25 µg/mL (≈ 0.154 µM); in assay [11], 2 µg/mL (≈ 1.23 µM); in assay [12], 1 µg/mL (≈ 0.617 µM). Moreover, the MIC in assay [3] and in [12] was 0.5 µg/mL (≈ 0.309 µM) in each case.
With `CO/N=C(\C(=O)N[C@@H]1C(=O)N2C(C(=O)O)=C(COC(C)=O)CS[C@H]12)c1csc(N)n1` [CEFOTAXIME], in [13], the MIC50 stood at 1 µg/mL (≈ 2.2 µM) and the MIC90 is more than 4 µg/mL.
Take `O=C(O)c1cn(C2CC2)c2cc(N3CCNCC3)c(F)cc2c1=O` [CIPROFLOXACIN]: the MIC50 in assay [14] was 0.25 µg/mL (≈ 0.754 µM); in [15], 2 µg/mL (≈ 6.04 µM); in assay [16], more than 8 µg/mL; in assay [17], 2 µg/mL (≈ 6.04 µM); in [18], more than 8 µg/mL; in assay [19], 2 µg/mL (≈ 6.04 µM). Further, the MIC50 in [20] was more than 32 µg/mL; in [21], 2 µg/mL (≈ 6.04 µM). The MIC90 in assay [14] is more than 2 µg/mL; in assay [15] it was 4 µg/mL (≈ 12.1 µM); in assay [16], more than 8 µg/mL; in assay [17], more than 8 µg/mL; in [18] it was more than 8 µg/mL; in assay [19] it was 2 µg/mL (≈ 6.04 µM). Also, the values for the MIC90 in assay [20] and in assay [21] were more than 32 µg/mL and 4 µg/mL (≈ 12.1 µM), respectively. In assay [16], the MIC was more than 8 µg/mL.
Regarding `CCC[C@@H]1C[C@@H](C(=O)N[C@@H]([C@H]2O[C@H](SC)[C@H](O)[C@@H](O)[C@H]2O)[C@H](C)Cl)N(C)C1` [CLINDAMYCIN], in assay [22], the MIC50 is 4 µg/mL (≈ 9.41 µM) and the MIC90 was more than 8 µg/mL.
Regarding `C[C@@H](O)[C@H]1C(=O)N2C(C(=O)O)=C(SCCNC=N)C[C@H]12` [IMIPENEM ANHYDROUS], the MIC50 came to 0.015 µg/mL (≈ 0.0501 µM) in assay [1]; 4 µg/mL (≈ 13.4 µM) in assay [15]; 1 µg/mL (≈ 3.34 µM) in assay [2]; 8 µg/mL (≈ 26.7 µM) in assay [3]; 1 µg/mL (≈ 3.34 µM) in assay [16]; 0.06 µg/mL (≈ 0.2 µM) in [4]. The MIC50 in assay [17] turned out to be 4 µg/mL (≈ 13.4 µM); in assay [18] it was 0.25 µg/mL (≈ 0.835 µM); in assay [5] it was 0.25 µg/mL (≈ 0.835 µM); in assay [19] it was 4 µg/mL (≈ 13.4 µM); in assay [20] it was 0.12 µg/mL (≈ 0.401 µM); in assay [6], 0.03 µg/mL (≈ 0.1 µM). Further, the MIC50 in assay [7] is 1 µg/mL (≈ 3.34 µM); in assay [21], 0.25 µg/mL (≈ 0.835 µM); in [8], 8 µg/mL (≈ 26.7 µM); in assay [9] it was more than 8 µg/mL; in assay [10], less than 0.008 µg/mL; in [11] it was 2 µg/mL (≈ 6.68 µM). Further, the MIC50 in assay [22] was 4 µg/mL (≈ 13.4 µM); in assay [23], 4 µg/mL (≈ 13.4 µM); in [12], 0.015 µg/mL (≈ 0.0501 µM). Also, the MIC90 in [1] is 0.03 µg/mL (≈ 0.1 µM); in assay [14], more than 32 µg/mL; in [2], 8 µg/mL (≈ 26.7 µM); in [3], more than 8 µg/mL; in [16] it was more than 8 µg/mL; in assay [4], 0.06 µg/mL (≈ 0.2 µM). Besides, the MIC90 is 8 µg/mL (≈ 26.7 µM) in [17]; 1 µg/mL (≈ 3.34 µM) in [18]; 1 µg/mL (≈ 3.34 µM) in assay [5]; more than 8 µg/mL in assay [19]; 1 µg/mL (≈ 3.34 µM) in assay [20]; 0.25 µg/mL (≈ 0.835 µM) in assay [6]. For the same compound, the MIC90 is 4 µg/mL (≈ 13.4 µM) in assay [7]; 0.25 µg/mL (≈ 0.835 µM) in assay [21]; 8 µg/mL (≈ 26.7 µM) in [8]; more than 8 µg/mL in [9]; less than 0.008 µg/mL in [10]; 2 µg/mL (≈ 6.68 µM) in assay [11]. The MIC90 in assay [22] was 8 µg/mL (≈ 26.7 µM); in assay [23], more than 8 µg/mL; in [12], 0.015 µg/mL (≈ 0.0501 µM). The MIC in assay [16] is 0.05 µg/mL (≈ 0.167 µM); in assay [4], 0.06 µg/mL (≈ 0.2 µM); in assay [19], 4 µg/mL (≈ 13.4 µM); in assay [8] it was 8 µg/mL (≈ 26.7 µM); in assay [10] it was less than 0.008 µg/mL; in assay [12], 0.015 µg/mL (≈ 0.0501 µM).
